Results on five compounds are retold here after ChEMBL document CHEMBL1125551, “Conformationally restricted analogues of disoxaril: a comparison of the activity against human rhinovirus types 14 and 1A” (1992).

The test system of one assay is rhinovirus B14. In words: In vitro determined against HRV-14 in a plaque reduction assay. The assay is classed as functional, human rhinovirus type 14. As to conditions: Rhinovirus B. On the technique in general: Plaque reduction counts the foci of infection that form in a cell layer.
A further assay deals with Human rhinovirus 1A. In words: In vitro determined against HRV-1A in a plaque reduction assay. The assay is classed as functional.

Values after ≈ are worked out from the molar mass of the structure shown. Where only a bound is given, the exact number is not on record here.

Take `Cc1cc(CCC#CCOc2c(Cl)cc(C3=NCCO3)cc2Cl)on1`: the MIC was 0.26 µM (≈ 0.0986 µg/mL) in the assay on rhinovirus B14 and over 8.2 µM in the assay on Human rhinovirus 1A.
`Cc1cc(CC/C=C\COc2c(Cl)cc(C3=NCCO3)cc2Cl)on1`: the MIC in the assay on rhinovirus B14 came out at 3.9 µM (≈ 1.49 µg/mL); in the assay with Human rhinovirus 1A, 4.72 µM (≈ 1.8 µg/mL).
Consider `Cc1cc(CCCOc2c(Cl)cc(C3=NCCO3)cc2Cl)on1`, for which the MIC against rhinovirus B14 was found to be 8.14 µM (≈ 2.89 µg/mL); in the assay on Human rhinovirus 1A, 0.46 µM (≈ 0.163 µg/mL).
Regarding `Cc1cc(CC/C=C/COc2c(Cl)cc(C3=NCCO3)cc2Cl)on1`, the MIC in the assay with rhinovirus B14 was found to be 0.44 µM (≈ 0.168 µg/mL); in the assay on Human rhinovirus 1A it was 2.25 µM (≈ 0.858 µg/mL).
Turning to `Cc1cc(CCCCCOc2c(Cl)cc(C3=NCCO3)cc2Cl)on1` [WIN-54954], the MIC against rhinovirus B14 came to 1.2 µM (≈ 0.46 µg/mL); against Human rhinovirus 1A it was 2.5 µM (≈ 0.958 µg/mL).
